Results taken from patent US20250346603A1, “TRICYCLIC COMPOUNDS AS PI3KALPHA INHIBITORS” (Pikavation Therapeutics, Inc., priority 2022, published 2025).
pIC50: −log10 of the molar value.

Assays:
[1] = system: T47D (PIK3CA H1047R) cells; test: pS473 AKT assay in T47D cells; assay type: cell-based; conditions: Homo sapiens, pSer473 AKT, 2 h treatment, read-out: T47D_IC50
Experimental: (§1) SKBR3 (PIK3CA WT), MCF7 (PIK3CA E545K), and T47D (PIK3CA H1047R) cells were cultured using 10-cm petri dishes with recommended medium. One day before the assay, cells were seeded in 96-well plates. After overnight incubation, cells were treated with different concentrations of PI3Kα inhibitors for 2 h. Cells were then fixed using 4% paraformaldehyde at room temperature for 20 min. Cells were aspirated with 4% paraformaldehyde, and washed using 1× regular phosphate buffered saline 3 times, 5 min each. Any residual phosphate buffered saline was aspirated and cells were blocked using 10% goat serum containing 1% bovine serum albumin and 0.3% Triton X-100 at room temperature for 1 h. Without any additional washing, primary antibodies (rabbit anti-pSer473 AKT) were diluted using blocking buffer and added at a final volume of 50 microliter per well. Assay plates with primary antibodies were maintained overnight at 4° C. Cells were washed using 1× regular phosphate buffered saline 3 times, 5 min each. After the final wash, cells were incubated with horseradish peroxidase-conjugated secondary antibodies (goat Anti-rabbit IgG) and diluted using the same blocking buffer at room temperature for 1 h. Cells were then washed thoroughly using 1× regular phosphate buffered saline 3 times, 5 min each, and any residual phosphate buffered saline was aspirated. Super-Signal ELISA Pico Chemiluminescent Substrate was then added at a final volume of 100 microliter per well. Plates were read on a i3× Multi-Mode Microplate Reader and IC50 values calculated using GraphPad Prism software.
(§2) Results of the assay described above are presented in Table A. “++++” indicates an IC50 less than 1000 nM; “+++” indicates an IC50 greater than or equal to 1000 nM but less than 5000 nM; “++” indicates an IC50 greater than or equal to 5000 nM but less than 10000 nM; and “+” indicates an IC50 greater than or equal to 10000 nM.

[2] = system: SKBR3 (PIK3CA WT) cells; test: pS473 AKT assay in SKBR3 cells; assay type: cell-based; conditions: Homo sapiens, SK-BR-3, pSer473 AKT, 2 h treatment, read-out: SKBR3_IC50
Experimental: as §1, §2

Structure (SMILES)	pIC50 [1]	pIC50 [2]
Cc1cc(C(C)Nc2ccccc2C(=O)O)c2nc(N3CCC(C)(C)CC3)n3ccnc3c2c1 (stereo not drawn) [Example 1, 2-((1-(5-(4,4-Dimethylpiperidin-1-yl)-9-methylimidazo[1,2-c]quinazolin-7-yl)ethyl)amino)benzoic acid]	> 6.00	≤ 5.00
Cc1cc(C(C)Nc2ccccc2C(=O)O)c2nc(N3Cc4ccccc4C3)n3ccnc3c2c1 (stereo not drawn) [Example 2, 2-((1-(5-(Isoindolin-2-yl)-9-methylimidazo[1,2-c]quinazolin-7-yl)ethyl)amino)benzoic acid]	> 6.00	≤ 5.00
Cc1cc(C(C)Nc2ccccc2C(=O)O)c2nc(N3CCC(C)(C)CC3)n3ncnc3c2c1 (stereo not drawn) [Example 3, 2-((1-(5-(4,4-Dimethylpiperidin-1-yl)-9-methyl-[1,2,4]triazolo[1,5-c]quinazolin-7-yl)ethyl)amino)benzoic acid]	> 6.00	≤ 5.00
Cc1cc(C(C)Nc2ccccc2C(=O)O)c2nc(N3CCC(C)(C)CC3)n3cnnc3c2c1 (stereo not drawn) [Example 4, 2-((1-(5-(4,4-Dimethylpiperidin-1-yl)-9-methyl-[1,2,4]triazolo[4,3-c]quinazolin-7-yl)ethyl)amino)benzoic acid]	> 6.00	≤ 5.00
Cc1cc(C(C)Nc2ccccc2C(=O)O)c2nc(N3Cc4ccccc4C3)n3cnnc3c2c1 (stereo not drawn) [Example 5, 2-((1-(5-(Isoindolin-2-yl)-9-methyl-[1,2,4]triazolo[4,3-c]quinazolin-7-yl)ethyl)amino)benzoic acid]	> 6.00	≤ 5.00
Cc1cc(C(C)Nc2ccccc2C(=O)O)c2nc(N3CCC(C)(C)C3)n3cnnc3c2c1 (stereo not drawn) [Example 6, 2-((1-(5-(3,3-Dimethylpyrrolidin-1-yl)-9-methyl-[1,2,4]triazolo[4,3-c]quinazolin-7-yl)ethyl)amino)benzoic acid]	> 6.00	≤ 5.00
Cc1cc(C(C)Nc2ccccc2C(=O)O)c2nc(N3CC(C)(C)C3)n3cnnc3c2c1 (stereo not drawn) [Example 7, 2-((1-(5-(3,3-Dimethylazetidin-1-yl)-9-methyl-[1,2,4]triazolo[4,3-c]quinazolin-7-yl)ethyl)amino)benzoic acid]	> 6.00	≤ 5.00
Cc1cc(C(C)Nc2ccccc2C(=O)O)c2nc(N3CCC(C)(C)CC3)n3nnnc3c2c1 (stereo not drawn) [Example 8, 2-((1-(5-(4,4-dimethylpiperidin-1-yl)-9-methyltetrazolo[1,5-c]quinazolin-7-yl)ethyl)amino)benzoic acid]	5.30 to 6.00	≤ 5.00
Cc1cc(C(C)Nc2ccccc2C(=O)O)c2nc(-c3cccc(C#N)c3)n3cnnc3c2c1 (stereo not drawn) [Example 9, 2-((1-(5-(3-Cyanophenyl)-9-methyl-[1,2,4]triazolo[4,3-c]quinazolin-7-yl)ethyl)amino)benzoic acid]	> 6.00	–
Cc1cc(C(C)Nc2ccc(Cl)nc2C(=O)O)c2nc(-c3cccc(C#N)c3)n3cnnc3c2c1 (stereo not drawn) [Example 10, 6-Chloro-3-((1-(5-(3-cyanophenyl)-9-methyl-[1,2,4]triazolo[4,3-c]quinazolin-7-yl)ethyl)amino)picolinic acid]	> 6.00	–
Cc1cc(C(C)Nc2ccccc2C(=O)O)c2nc(-c3cc(F)cc(F)c3)n3cnnc3c2c1 (stereo not drawn) [Example 11, 2-((1-(5-(3,5-Difluorophenyl)-9-methyl-[1,2,4]triazolo[4,3-c]quinazolin-7-yl)ethyl)amino)benzoic acid]	> 6.00	–
CCc1ncn2c3c(C(C)Nc4ccc(C)nc4C(=O)O)cc(C)cc3c3nncn3c12 (stereo not drawn) [Example 12, 3-((1-(5-Ethyl-11-methylimidazo[1,5-a][1,2,4]triazolo[4,3-c]quinazolin-9-yl)ethyl)amino)-6-methylpicolinic acid]	5.30 to 6.00	–
Cc1cc(C(C)Nc2ccc(Cl)nc2-c2ccncc2)c2nc(N3CCC(C)(C)CC3)n3cnnc3c2c1 (stereo not drawn) [Example 13, 6-Chloro-N-(1-(5-(4,4-dimethylpiperidin-1-yl)-9-methyl-[1,2,4]triazolo[4,3-c]quinazolin-7-yl)ethyl)-[2,4′-bipyridin]-3-amine]	> 6.00	–
CNC(=O)c1ccc(-c2nc(Cl)ccc2NC(C)c2cc(C)cc3c2nc(N2CCC(C)(C)CC2)n2cnnc32)cn1 (stereo not drawn) [Example 14, 6-Chloro-3-((1-(5-(4,4-dimethylpiperidin-1-yl)-9-methyl-[1,2,4]triazolo[4,3-c]quinazolin-7-yl)ethyl)amino)-N-methyl-[2,3′-bipyridine]-6′-carboxamide]	> 6.00	–
Cc1cc(C(C)Nc2ccc(Cl)nc2-c2cnn(C)c2)c2nc(N3CCN(C)CC3)n3cnnc3c2c1 (stereo not drawn) [Example 15, 6-Chloro-2-(1-methyl-1H-pyrazol-4-yl)-N-(1-(9-methyl-5-(4-methylpiperazin-1-yl)-[1,2,4]triazolo[4,3-c]quinazolin-7-yl)ethyl)pyridin-3-amine]	> 6.00	–
Cc1cc(C(C)Nc2ccc(Cl)nc2-c2ccnn2C)c2nc(N3CCN(C)CC3)n3cnnc3c2c1 (stereo not drawn) [Example 16, 6-Chloro-2-(1-methyl-1H-pyrazol-5-yl)-N-(1-(9-methyl-5-(4-methylpiperazin-1-yl)-[1,2,4]triazolo[4,3-c]quinazolin-7-yl)ethyl)pyridin-3-amine]	> 6.00	–
